Test results: ChEMBL document CHEMBL1201862, “PubChem BioAssay data set” (2004)
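Results reflect a 48-hour exposure of cells in 96-well plates to compound at five concentrations. Abbreviation: GI50, concentration required for 50% inhibition of growth.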 Active and inactive are the calls of the source. No stated cut-off is given here; in the data, active = GI50 up to about 1.1 µM and inactive = higher.

Tests used:
Assay in all cases: inhibition of tumour cell growth, NCI panel, 48 h
[1] = test system: SNB-19
[2] = test system: RPMI-8226
[3] = test system: SNB-75
[4] = test system: RXF 631
[5] = test system: XF498
[6] = test system: CAKI-1
[7] = test system: HL-60
[8] = test system: SF-539
[9] = test system: ACHN
[10] = test system: UACC-62
[11] = test system: HT-29
[12] = test system: SK-MEL-5
[13] = test system: M19-MEL
[14] = test system: LOX IMVI
[15] = test system: UACC-257
[16] = test system: EKVX
[17] = test system: SW-620
[18] = test system: TK-10
[19] = test system: DMS-273
[20] = test system: HOP-92
[21] = test system: U-251
[22] = test system: 786-0
[23] = test system: K562
[24] = test system: KM-20L2
[25] = test system: COLO 205
[26] = test system: RXF 393
[27] = test system: CCRF-CEM
[28] = test system: OVCAR-3
[29] = test system: HCT-116
[30] = test system: HCT-15
[31] = test system: HOP-62
[32] = test system: IGROV-1
[33] = test system: A498
[34] = test system: MOLT-4
[35] = test system: SF-295
[36] = test system: NCI-H460
[37] = test system: SK-MEL-28
[38] = test system: A549
[39] = test system: SK-OV-3
[40] = test system: SNB-78
[41] = test system: DLD-1
[42] = test system: OVCAR-8
[43] = test system: M14
[44] = test system: HOP-18
[45] = test system: DMS-114
[46] = test system: SN12C
[47] = test system: LXFL 529
[48] = test system: OVCAR-4
[49] = test system: HCC 2998
[50] = test system: NCI-H23
[51] = test system: SK-MEL-2
[52] = test system: KM12
[53] = test system: OVCAR-5
[54] = test system: Malme-3M
[55] = test system: UO-31
[56] = test system: SF-268
[57] = test system: SR

Measured: GI50

O=C1C(c2ccccc2)=C(c2ccccc2)[C@H](c2ccccc2)[C@]1(Cc1nnn(-c2ccc([N+](=O)[O-])cc2)c1N1CCOCC1)c1ccccc1
> 37.5 µM: [30]
active: [20] 0.00621 µM
inactive: [1] 35.9 µM | [2] > 37.5 µM | [3] > 37.5 µM | [4] > 37.5 µM | [5] 8.3 µM | [6] > 37.5 µM | [7] > 37.5 µM | [8] > 37.5 µM | [9] 14.5 µM | [10] > 37.5 µM | [11] > 37.5 µM | [12] 19.1 µM | [13] > 37.5 µM | [14] 24.5 µM | [15] > 37.5 µM | [16] > 37.5 µM | [17] > 37.5 µM | [18] > 37.5 µM | [19] 24.9 µM | [21] > 37.5 µM | [22] > 37.5 µM | [23] > 37.5 µM | [24] > 37.5 µM | [25] > 37.5 µM | [26] 9.62 µM | [27] > 37.5 µM | [28] 9.93 µM | [29] 28.7 µM | [31] > 37.5 µM | [32] > 37.5 µM | [33] > 37.5 µM | [34] 12.1 µM | [35] 35.6 µM | [36] > 37.5 µM | [37] > 37.5 µM | [38] > 37.5 µM | [39] > 37.5 µM | [40] > 37.5 µM | [41] > 37.5 µM | [42] > 37.5 µM | [43] > 37.5 µM | [44] > 37.5 µM | [45] > 37.5 µM | [46] > 37.5 µM | [47] 24.4 µM | [48] 13.7 µM | [49] > 37.5 µM | [50] > 37.5 µM

CSc1ccc(Cc2cc(C(C)(C)C)cc(C(C)(C)C)c2O)cc1
14 µM: [30]
inactive: [1] 16.3 µM | [2] 4.45 µM | [3] 16 µM | [4] 14.9 µM | [5] 17.8 µM | [6] 16.7 µM | [7] 8.67 µM | [8] 17.3 µM | [9] 15 µM | [10] 15.3 µM | [51] 3.88 µM | [11] 13.8 µM | [52] 11 µM | [12] 15.6 µM | [13] 16.8 µM | [14] 10.4 µM | [15] 14.7 µM | [53] 3.11 µM | [54] 15.2 µM | [16] 18.2 µM | [17] 16.1 µM | [18] 12.9 µM | [55] 17 µM | [19] 13.7 µM | [21] 14.8 µM | [22] 16.7 µM | [23] 12 µM | [24] 14.6 µM | [26] 13.3 µM | [27] 15.5 µM | [29] 10.8 µM | [31] 20.6 µM | [32] 13.8 µM | [33] 15.6 µM | [34] 8.07 µM | [35] 17.6 µM | [36] 14 µM | [37] 16.5 µM | [38] 13.6 µM | [39] 27 µM | [40] 14.9 µM | [41] 13.8 µM | [42] 16.9 µM | [43] 15.1 µM | [56] 15.8 µM | [44] 19.6 µM | [45] 13 µM | [46] 15.1 µM | [47] 13.9 µM | [48] 15.4 µM | [57] 8.75 µM | [49] 18.5 µM | [50] 14.5 µM
